Data as given in patent publication US8658646B2, “Pyrrolopyrazine kinase inhibitors” (Hoffmann-LaRoche Inc., priority 2011, dated 2014).

biological target: T1, recombinant human SYK360-635 (Homo sapiens, UniProt P43405); assay: Determination of IC50 of Spleen Tyrosine Kinase (SYK) inhibition, 33P ATP filtration assay; format: biochemical; conditions: SYK aa 360-635 0.5 nM; ATP 20 μM, peptide 5 μM, 0.1% BSA; read-out: SYK_ENZYME_FILTRATION/v1, BSA
T1 construct: made in house

Compound	IC50
Cn1nc(-c2cnc3[nH]cc(C(=O)N[C@@H]4CCC[C@H](N)C4)c3n2)c2ccc(Cl)cc21 (relative stereo) [Example I-277, 2-(6-Chloro-1-methyl-1H-indazol-3-yl)-5H-pyrrolo[2,3-b]pyrazine-7-carboxylic acid (cis-3-amino-cyclohexyl)-amide]	40 nM
COCC(COC)NC(=O)c1c[nH]c2ncc(-c3nn(C)c4cc(Cl)ccc34)nc12 [Example I-166, 2-(6-Chloro-1-methyl-1H-indazol-3-yl)-5H-pyrrolo[2,3-b]pyrazine-7-carboxylic acid (2-methoxy-1-methoxymethyl-ethyl)-amide]	106 nM
COC[C@H](C)NC(=O)c1c[nH]c2ncc(-c3nn(C)c4ccc(C5CC5)cc34)nc12 [Example I-194, 2-(5-Cyclopropyl-1-methyl-1H-indazol-3-yl)-5H-pyrrolo[2,3-b]pyrazine-7-carboxylic acid ((S)-2-methoxy-1-methyl-ethyl)-amide]	11.9 nM
Cn1nc(-c2cnc3[nH]cc(C(=O)NC(C)(C)CO)c3n2)c2cc(C3CC3)ccc21 [Example I-196, 2-(5-Cyclopropyl-1-methyl-1H-indazol-3-yl)-5H-pyrrolo[2,3-b]pyrazine-7-carboxylic acid (2-hydroxy-1,1-dimethyl-ethyl)-amide]	8 nM
CC(C)(C)NC(=O)c1c[nH]c2ncc(-c3nn(CC(=O)N4CCOCC4)c4cc(F)ccc34)nc12 [Example I-251, 2-[6-Fluoro-1-(2-morpholin-4-yl-2-oxo-ethyl)-1H-indazol-3-yl]-5H-pyrrolo[2,3-b]pyrazine-7-carboxylic acid tert-butylamide]	14.3 nM
CC(C)(C)NC(=O)c1c[nH]c2ncc(-c3nn(C4CCNC4)c4cc(F)ccc34)nc12 (centres unmarked) [Example I-258, 2-(6-Fluoro-1-pyrrolidin-3-yl-1H-indazol-3-yl)-5H-pyrrolo[2,3-b]pyrazine-7-carboxylic acid tert-butylamide]	24.6 nM
Cn1nc(-c2cnc3[nH]cc(C(=O)NC(C)(C)C)c3n2)c2ncccc21 [Example I-259, 2-(1-Methyl-1H-pyrazolo[4,3-b]pyridin-3-yl)-5H-pyrrolo[2,3-b]pyrazine-7-carboxylic acid tert-butylamide]	42.9 nM
CC(C)(C)NC(=O)c1c[nH]c2ncc(-c3nn(Cc4cccnc4)c4ccc(OC(F)F)cc34)nc12 [Example I-264, 2-(5-Difluoromethoxy-1-pyridin-3-ylmethyl-1H-indazol-3-yl)-5H-pyrrolo[2,3-b]pyrazine-7-carboxylic acid tert-butylamide]	4.67 nM
CC(C)(C)NC(=O)c1c[nH]c2ncc(-c3nn(CC4CCNC4)c4ccc(OC(F)F)cc34)nc12 (centres unmarked) [Example I-265, 2-(5-Difluoromethoxy-1-pyrrolidin-3-ylmethyl-1H-indazol-3-yl)-5H-pyrrolo[2,3-b]pyrazine-7-carboxylic acid tert-butylamide]	8.62 nM
NC1CCC(NC(=O)c2c[nH]c3ncc(-c4nn(C5CCNCC5)c5cc(F)ccc45)nc23)C1 (centres unmarked) [Example I-267, 2-(6-Fluoro-1-piperidin-4-yl-1H-indazol-3-yl)-5H-pyrrolo[2,3-b]pyrazine-7-carboxylic acid (3-amino-cyclopentyl)-amide]	30.3 nM
CC(C)NC(=O)c1c[nH]c2ncc(-c3nn(C)c4ccc(C(C)O)cc34)nc12 (centres unmarked) [Example I-269, 2-[5-(1-Hydroxy-ethyl)-1-methyl-1H-indazol-3-yl]-5H-pyrrolo[2,3-b]pyrazine-7-carboxylic acid isopropylamide]	22.1 nM
Cn1nc(-c2cnc3[nH]cc(C(=O)NC(C)(C)C)c3n2)c2c1CCCCC2 [Example I-272, 2-(1-Methyl-1,4,5,6,7,8-hexahydro-cycloheptapyrazol-3-yl)-5H-pyrrolo[2,3-b]pyrazine-7-carboxylic acid tert-butylamide]	75.3 nM
Cn1cc(Cn2nc(-c3cnc4[nH]cc(C(=O)NC(C)(C)C)c4n3)c3cc(OC(F)F)ccc32)cn1 [Example I-274, 2-[5-Difluoromethoxy-1-(1-methyl-1H-pyrazol-4-ylmethyl)-1H-indazol-3-yl]-5H-pyrrolo[2,3-b]pyrazine-7-carboxylic acid tert-butylamide]	2.5 nM
CC(C)NC(=O)c1c[nH]c2ncc(-c3nn(C)c4c3CCC(C)(C)C4)nc12 [Example I-279, 2-(1,6,6-Trimethyl-4,5,6,7-tetrahydro-1H-indazol-3-yl)-5H-pyrrolo[2,3-b]pyrazine-7-carboxylic acid isopropylamide]	277 nM
COc1ccc2c(c1)c(-c1cnc3[nH]cc(C(=O)NC(C)(C)C)c3n1)nn2C [Example I-287, 2-(5-Methoxy-1-methyl-1H-indazol-3-yl)-5H-pyrrolo[2,3-b]pyrazine-7-carboxylic acid tert-butylamide]	3.22 nM
COc1ccc2c(c1)c(-c1cnc3[nH]cc(C(=O)N[C@@H]4CCOC[C@@H]4N)c3n1)nn2C [Example I-290, 2-(5-Methoxy-1-methyl-1H-indazol-3-yl)-5H-pyrrolo[2,3-b]pyrazine-7-carboxylic acid ((3R,4R)-3-amino-tetrahydro-pyran-4-yl)-amide]	2130 nM

The next lines start with the values.

IC50	Compound
16.4 nM	Cn1nc(-c2cnc3[nH]cc(C(=O)N[C@@H]4CCC[C@@H](N)C4)c3n2)c2ccc(Cl)cc21 (relative stereo) [Example I-276, 2-(6-Chloro-1-methyl-1H-indazol-3-yl)-5H-pyrrolo[2,3-b]pyrazine-7-carboxylic acid (trans-3-amino-cyclohexyl)-amide]
45.7 nM	C[C@@H](NC(=O)c1c[nH]c2ncc(-c3nn(C)c4cc(C#N)ccc34)nc12)C(=O)N1CC(C#N)C1 [Example I-22, 2-(6-Cyano-1-methyl-1H-indazol-3-yl)-5H-pyrrolo[2,3-b]pyrazine-7-carboxylic acid [(R)-2-(3-cyano-azetidin-1-yl)-1-methyl-2-oxo-ethyl]-amide]
4.1 nM	C[C@@H](NC(=O)c1c[nH]c2ncc(-c3cn(C)c4cc(Cl)ccc34)nc12)C(=O)N1CC(C#N)C1 [Example I-29, 2-(6-Chloro-1-methyl-1H-indol-3-yl)-5H-pyrrolo[2,3-b]pyrazine-7-carboxylic acid [(R)-2-(3-cyano-azetidin-1-yl)-1-methyl-2-oxo-ethyl]-amide]
5.8 nM	CC(C)NC(=O)c1c[nH]c2ncc(-c3nn(C)c4ccc(O)cc34)nc12 [Example I-65, 2-(5-Hydroxy-1-methyl-1H-indazol-3-yl)-5H-pyrrolo[2,3-b]pyrazine-7-carboxylic acid isopropylamide]
129 nM	CC(CC1CC1)NC(=O)c1c[nH]c2ncc(-c3nn(C)c4cc(F)ccc34)nc12 (centres unmarked) [Example I-186, 2-(6-Fluoro-1-methyl-1H-indazol-3-yl)-5H-pyrrolo[2,3-b]pyrazine-7-carboxylic acid (2-cyclopropyl-1-methyl-ethyl)-amide]
12 nM	CC(C)NC(=O)c1c[nH]c2ncc(-c3nn(C)c4ccc(C5CC5)cc34)nc12 [Example I-195, 2-(5-Cyclopropyl-1-methyl-1H-indazol-3-yl)-5H-pyrrolo[2,3-b]pyrazine-7-carboxylic acid isopropylamide]
4.79 nM	Cn1nc(-c2cnc3[nH]cc(C(=O)NC(C)(C)C)c3n2)c2cc(C3CC3)ccc21 [Example I-197, 2-(5-Cyclopropyl-1-methyl-1H-indazol-3-yl)-5H-pyrrolo[2,3-b]pyrazine-7-carboxylic acid tert-butylamide]
607 nM	Cn1nc(-c2cnc3[nH]cc(C(=O)NC4(C(C)(C)O)CCC4)c3n2)c2ccc(F)cc21 [Example I-255, 2-(6-Fluoro-1-methyl-1H-indazol-3-yl)-5H-pyrrolo[2,3-b]pyrazine-7-carboxylic acid [1-(1-hydroxy-1-methyl-ethyl)-cyclobutyl]-amide]
23.5 nM	Cn1nc(-c2cnc3[nH]cc(C(=O)NC4(CO)CCC4)c3n2)c2ccc(F)cc21 [Example I-256, 2-(6-Fluoro-1-methyl-1H-indazol-3-yl)-5H-pyrrolo[2,3-b]pyrazine-7-carboxylic acid (1-hydroxymethyl-cyclobutyl)-amide]
6.85 nM	Cn1nc(-c2cnc3[nH]cc(C(=O)NC(C)(C)C)c3n2)c2cc(C#N)ccc21 [Example I-260, 2-(5-Cyano-1-methyl-1H-indazol-3-yl)-5H-pyrrolo[2,3-b]pyrazine-7-carboxylic acid tert-butylamide]
1.83 nM	CC(C)(C)NC(=O)c1c[nH]c2ncc(-c3nn(C4CCNCC4)c4ccc(OC(F)F)cc34)nc12 [Example I-261, 2-(5-Difluoromethoxy-1-piperidin-4-yl-1H-indazol-3-yl)-5H-pyrrolo[2,3-b]pyrazine-7-carboxylic acid tert-butylamide]
2.75 nM	CC(C)(C)NC(=O)c1c[nH]c2ncc(-c3nn(CCCC(=O)O)c4ccc(OC(F)F)cc34)nc12 [Example I-262, 4-[3-(7-tert-Butylcarbamoyl-5H-pyrrolo[2,3-b]pyrazin-2-yl)-5-difluoromethoxy-indazol-1-yl]-butyric acid]
14.4 nM	CN1CCC(n2nc(-c3cnc4[nH]cc(C(=O)NC(C)(C)C)c4n3)c3cc(OC(F)F)ccc32)CC1 [Example I-263, 2-[5-Difluoromethoxy-1-(1-methyl-piperidin-4-yl)-1H-indazol-3-yl]-5H-pyrrolo[2,3-b]pyrazine-7-carboxylic acid tert-butylamide]
16.4 nM	Cn1nc(-c2cnc3[nH]cc(C(=O)NC(C)(C)C)c3n2)c2ccc(S(C)(=O)=O)cc21 [Example I-270, 2-(6-Methanesulfonyl-1-methyl-1H-indazol-3-yl)-5H-pyrrolo[2,3-b]pyrazine-7-carboxylic acid tert-butylamide]
30.3 nM	Cn1nc(-c2cnc3[nH]cc(C(=O)N[C@H]4C[C@@H](N)C4)c3n2)c2ccc(F)cc21 [Example I-271, 2-(6-Fluoro-1-methyl-1H-indazol-3-yl)-5H-pyrrolo[2,3-b]pyrazine-7-carboxylic acid (cis-3-amino-cyclobutyl)-amide]
7.95 nM	COc1ccc2c(c1)c(-c1cnc3[nH]cc(C(=O)NC(C)(C)CO)c3n1)nn2C [Example I-288, 2-(5-Methoxy-1-methyl-1H-indazol-3-yl)-5H-pyrrolo[2,3-b]pyrazine-7-carboxylic acid (2-hydroxy-1,1-dimethyl-ethyl)-amide]
